Test results reported in publication PMC9202147, “In vitro anti-HIV and cytotoxic effects of pure compounds isolated from Croton macrostachyus Hochst. Ex Delile” (BMC Complementary Medicine and Therapies, 2022).
In brackets after ≈: the same amount, converted by molar mass.

Tested on: HIV-1IIIB virus
Test: Anti-HIV activity: inhibition of HIV-1-induced cytopathic effect in MT-4 cells, MTT colorimetric assay
Format: cell-based
Details: HIV-1IIIB-infected MT-4 cells, 5 days, MTT; mean ± S.E.M (n = 3)
Experimental: The effects of the test compounds in preventing cytopathic effects that occur because of HIV-1 replication were evaluated by MTT colorimetric assay. MT-4 cells suspended at 1 X 10^8 cells/ml were infected with 640 μL of HIV-1IIIB virus at 1.26 X10^8 TCID50/ml. After infection, 200 μl HIV-infected MT-4 cells (1 X10^5 cells/well) in growth media were added to each well. The plates were preincubated for 24 h at 37 °C to allow stabilization. Then, 50 μL of the test compounds (at a concentration of 4 mg/ml) were added to the first column of the well. With a multichannel pipette, 50 μL was transferred (in triplicate) from the wells labeled 1 to wells labeled 2. Such transfers were continued (serial dilution), moving from left to right, changing tips prior to mixing contents of the next column of wells. Finally, 50 μL was discarded from the wells in column 12. Different concentrations ([…]) of test compounds were prepared through serial dilution. Each dilution was tested in triplicates. The microtiter plates were incubated at 37 °C in a 5% CO2 incubator for 5 days. […] After 5 days of incubation, cell viability was determined by the MTT assay described. All compounds were assayed in triplicate.

Compound | EmaxAV (maximum antiviral effect %, inhibition of virus-induced CPE) [%]
Cc1ccnc2c1NC(=O)c1cccnc1N2C1CC1 [NVP, Nevirapine, reference compound] | 72.53 ± 0.47
Nc1nc(NC2CC2)c2ncn([C@H]3C=C[C@@H](CO)C3)c2n1 [ABC, Abacavir, reference compound] | 58.67 ± 0.43
Cc1cn([C@H]2C[C@H](N=[N+]=[N-])[C@@H](CO)O2)c(=O)[nH]c1=O [AZT, Zidovudine, reference compound] | 83.5 ± 0.57
C[C@H](Cn1cnc2c(N)ncnc21)OCP(=O)(O)O [TDF, Tenofovir, reference compound] | 80.55 ± 0.46

Same assay, conditions: Human immunodeficiency virus 1, MT4, 120 h, read-out: IC50 (50% antiviral effect concentration)

Compound | IC50 [µg/mL]
C[C@H](Cn1cnc2c(N)ncnc21)OCP(=O)(O)O [TDF, Tenofovir, reference compound] | 0.04 ± 0.01 (≈ 0.139 µM)

Same assay, conditions: Human immunodeficiency virus 1, MT4, 120 h, read-out: IC50 (50% antiviral effect concentration); HIV-1IIIB-infected MT-4 cells, 5 days, MTT; mean ± S.E.M (n = 3)

Compound | IC50 [µg/mL]
Cc1ccnc2c1NC(=O)c1cccnc1N2C1CC1 [NVP, Nevirapine, reference compound] | 0.24 ± 0.09 (≈ 0.901 µM)
Nc1nc(NC2CC2)c2ncn([C@H]3C=C[C@@H](CO)C3)c2n1 [ABC, Abacavir, reference compound] | 0.05 ± 0.031 (≈ 0.175 µM)

Same assay, conditions: ratio of CC50 to EC50, MT-4 cells

Compound | SI (selective index)
Cc1ccnc2c1NC(=O)c1cccnc1N2C1CC1 [NVP, Nevirapine, reference compound] | 3.5
Nc1nc(NC2CC2)c2ncn([C@H]3C=C[C@@H](CO)C3)c2n1 [ABC, Abacavir, reference compound] | 5.0

Tested on: MT-4 cells
Test: in vitro
Details: 5 days, MTT, concentration with cell viability above 80% (CC20), mean ± S.E.M (n = 3)
Experimental: A cytotoxicity test was conducted to evaluate the safety of the plant extracts by measuring cell death caused by the plant extracts. The assay was conducted using an MTT colorimetric assay. The MTT assay was based on the reduction of the yellow-colored tetrazolium salt MTT 3-(4,5-dimethylthiazol-2-yl)-2,5-diphenyltetrazolium bromide) by NAD(P)H-dependent cellular oxidoreductase enzymes to an insoluble dark-blue colored formazan that can be measured spectrophotometrically. Formazan production indicates the number of viable cells; therefore, an increase or decrease in cellular viability results in a change in the amount of formazan formed, which indicates the degree of cellular cytotoxicity (CC50) caused by the plant extract. MTT (3-(4,5-dimethylthiazol-2-yl)-2,5-diphenyl tetrazolium bromide) was dissolved in PBS to obtain a final concentration of 5 mg/ml and filtered to sterilize and remove insoluble residue. The assay was carried out in 96-well, flat-bottomed microtiter plates. To each well, 200 μl of MT-4 cells (1 × 10^5 cells) in growth media was added. The plates were preincubated for 24 h at 37 °C to allow stabilization. Then, 50 μL of the test compounds (at a concentration of 4 mg/ml) were added to the first column of the well. With a multichannel pipette, 50 μL was transferred (in triplicate) from the wells labeled 1 to wells labeled 2, and such transfers were continued (serial dilution), moving from left to right, changing tips prior to mixing contents of the next column of wells. Finally, 50 μL was discarded from the wells in column 12. […] Each dilution was tested in triplicates. The negative control (NC) wells contained 50 μl of MT-4 cells in 0.5% DMSO [52]. […] A 96-well microtiter plate containing the test compounds and positive and negative controls was incubated at 37 °C in a humidified atmosphere of 5% CO2 for 5 days. After incubation, 20 μl of MTT reagent (5 mg/ml MTT in phosphate-buffered saline) was added to each test well and control well. The plate was further incubated at 37 °C in a CO2 incubator for 4 hours. After 4 hours of incubation, 100 μl of DMSO was added to dissolve the dark-blue formazan crystals from surviving cells. After the formazan crystals were dissolved completely, the resulting optical density (OD) readings were measured relative to the controls on an ELISA plate reader at 570 nm with a reference wavelength of 620 nm. For each extract and pure compound tested, 3 triplicate determinations were performed. […] The concentration that determined cell viability above 80% (CC20) was chosen as the maximum non-toxic concentration (MNTC).

Compound | MNTC (maximum nontoxic concentration) [µg/mL]
Cc1ccnc2c1NC(=O)c1cccnc1N2C1CC1 [NVP, Nevirapine, reference compound] | 0.57 ± 0.0
Nc1nc(NC2CC2)c2ncn([C@H]3C=C[C@@H](CO)C3)c2n1 [ABC, Abacavir, reference compound] | 0.18 ± 0.03
C[C@H](Cn1cnc2c(N)ncnc21)OCP(=O)(O)O [TDF, Tenofovir, reference compound] | 4.92 ± 0.71

Same assay, conditions: 5 days, MTT, mean ± S.E.M (n = 3)

Compound | CC50 (50% cytotoxic concentration) [µg/mL] | EmaxC (maximum cytotoxic effect %) [%]
Cc1ccnc2c1NC(=O)c1cccnc1N2C1CC1 [NVP, Nevirapine, reference compound] | 0.82 ± 0.0 (≈ 3.08 µM) | 39.13 ± 0.65
Nc1nc(NC2CC2)c2ncn([C@H]3C=C[C@@H](CO)C3)c2n1 [ABC, Abacavir, reference compound] | 0.26 ± 0.00 (≈ 0.908 µM) | 17.83 ± 0.57
C[C@H](Cn1cnc2c(N)ncnc21)OCP(=O)(O)O [TDF, Tenofovir, reference compound] | 6.73 ± 0.24 (≈ 23.4 µM) | 13.17 ± 0.43
